Test results as given in US20260035382A1, “COMPOUNDS AS SUMO ACTIVATING ENZYME INHIBITORS” (WIGEN BIOMEDICINE TECHNOLOGY (SHANGHAI) CO., LTD., priority 2022, published 2026).

target: SAE (Homo sapiens (Human), UniProt Q9UBT2); experiment: In vitro inhibitory activity assay against SAE (SUMO-2/3 immunofluorescence in HCT116 cells); assay type: cell-based; conditions: 6 h incubation, class symbols, read-out: SUMO IF IC50
Experimental: HCT116 cells were seeded into a 96-well black transparent bottom plate at about 20000/well with 90 μL per well. The cells were incubated at 37° C. overnight for 24 h. The test compounds were 10-fold diluted to give a final concentration, and 10 μL of the diluted compounds was added to each well of the cell culture plate. The mixture was incubated at 37° C. for 6 h. The cells were then washed gently, the culture medium was discarded, and the cells were washed once with 200 μL of 0.1% o PBST. 50 μL of 4% PFA was added to each well, and the cells were immobilized at room temperature for 20 min, and then washed with PBS 2-3 times. 50 μL of 0.2% o Triton X-100 was added to each well, and the cells were left to stand at room temperature for 15 min and washed with 0.1% PBST 3 times. 100 uL of 3% BSA (0.6 g BSA+20 mL PBS) was added to each well, and the mixture was blocked at 37° C. for 30 min. After the blocking was completed, the liquid was removed and a primary antibody (SUMO-2/3 (181H8) Rabbit mAb, 1:400 dilution) was prepared with […]. 30 μL of the diluted primary antibody was added to each well, and the mixture was incubated at 4° C. overnight. The cells were washed 3 times with 200 μL of 0.1% o PBST. A FITC secondary antibody (Fluorescein (FITC)-conjugated Affinipure Goat Anti-Rabbit IgG (H+L), 1:300 dilution) was further prepared with 1% o BSA, and 40 μL of the diluted secondary antibody was added to each well. The mixture was incubated at room temperature in the dark for 2 h, and then the cells were washed 4 times with 0.1% PBST. The fluorescence signal of the sample was detected and compared to the DMSO group, and the inhibition rate and IC50 were calculated.

Chain of SAE (Q9UBT2 whole entry): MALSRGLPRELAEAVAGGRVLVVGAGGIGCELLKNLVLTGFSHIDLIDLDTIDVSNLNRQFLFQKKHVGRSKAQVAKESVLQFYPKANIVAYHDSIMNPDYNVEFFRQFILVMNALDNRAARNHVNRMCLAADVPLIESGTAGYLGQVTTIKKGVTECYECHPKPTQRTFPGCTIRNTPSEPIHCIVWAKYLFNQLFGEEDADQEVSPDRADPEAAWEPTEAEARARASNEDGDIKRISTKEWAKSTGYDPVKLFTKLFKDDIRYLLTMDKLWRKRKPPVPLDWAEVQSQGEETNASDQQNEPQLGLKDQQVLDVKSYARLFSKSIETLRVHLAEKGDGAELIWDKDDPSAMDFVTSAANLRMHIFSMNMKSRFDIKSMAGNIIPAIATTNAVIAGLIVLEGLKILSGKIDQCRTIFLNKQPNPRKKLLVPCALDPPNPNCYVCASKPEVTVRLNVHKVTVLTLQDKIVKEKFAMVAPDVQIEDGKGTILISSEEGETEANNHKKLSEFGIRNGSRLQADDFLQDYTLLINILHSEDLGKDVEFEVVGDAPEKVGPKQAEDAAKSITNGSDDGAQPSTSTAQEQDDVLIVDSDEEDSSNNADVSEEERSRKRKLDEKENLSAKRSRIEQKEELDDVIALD
Chain of SAE (Q9UBE0 whole entry partner): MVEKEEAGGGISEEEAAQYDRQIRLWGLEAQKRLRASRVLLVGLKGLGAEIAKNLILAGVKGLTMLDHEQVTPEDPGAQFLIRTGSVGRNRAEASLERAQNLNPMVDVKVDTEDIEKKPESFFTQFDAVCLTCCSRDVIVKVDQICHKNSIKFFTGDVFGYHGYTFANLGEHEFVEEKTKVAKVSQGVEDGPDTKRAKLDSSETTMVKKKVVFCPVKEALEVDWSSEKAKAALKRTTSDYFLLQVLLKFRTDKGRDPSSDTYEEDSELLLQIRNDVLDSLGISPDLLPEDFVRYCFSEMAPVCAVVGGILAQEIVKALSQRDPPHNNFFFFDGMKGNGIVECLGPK

| SMILES | IC50 [nM] |
| --- | --- |
| NS(=O)(=O)OC[C@H]1C[C@@H](Nc2ncncc2C(=O)c2cc3c(s2)COC[C@@]32NCCc3ccc(Cl)c(F)c32)C[C@@H]1O [Compound 104] | > 200 |
| NS(=O)(=O)OC[C@H]1C[C@@H](Nc2ncncc2C(=O)c2cc3c(s2)CC[C@]32NCCc3ccc(C4CC4)cc32)C[C@@H]1O [Compound 224] | 50 to 200 |
| NS(=O)(=O)OC[C@H]1C[C@@H](Nc2ncncc2C(=O)c2cc3c(s2)CCC[C@@]32NCCc3ncc(Cl)cc32)C[C@@H]1O [Compound 140] | > 200 |
| NS(=O)(=O)OC[C@H]1C[C@@H](Nc2ncncc2C(=O)c2cc3c(s2)CC[C@]32NCCc3cc(F)c(F)cc32)C[C@@H]1O [Compound 227] | ≤ 50 |
| NS(=O)(=O)OC[C@H]1C[C@@H](Nc2ncncc2C(=O)c2cc3c(s2)CCCC32NCCc3cc(F)c(Cl)cc32)C[C@@H]1O (stereo partly drawn) [Compound 27] | ≤ 50 |
| NS(=O)(=O)OC[C@H]1C[C@@H](Nc2ncncc2C(=O)c2cc3c(s2)CSC[C@]32NCCc3ccc(Cl)nc32)C[C@@H]1O [Compound 147] | ≤ 50 |
| NS(=O)(=O)OC[C@H]1C[C@@H](Nc2ncncc2C(=O)c2cc3c(s2)CCCC32NCCc3ncc(Cl)cc32)C[C@@H]1O (stereo partly drawn) [Compound 139] | 50 to 200 |
| CCN1Cc2sc(C(=O)c3cncnc3N[C@@H]3C[C@H](COS(N)(=O)=O)[C@@H](O)C3)cc2[C@]2(C1)OCCc1ccc(F)cc12 [Compound 264] | ≤ 50 |
| COc1ccc2c(c1)C1(CCCc3sc(C(=O)c4cncnc4N[C@@H]4C[C@H](COS(N)(=O)=O)[C@@H](O)C4)cc31)NCC2 (stereo partly drawn) [Compound 24] | > 200 |
| NS(=O)(=O)OC[C@H]1C[C@@H](Nc2ncncc2C(=O)c2nc3c(s2)CSC[C@@]32NCCc3ccc(Cl)cc32)C[C@@H]1O [Compound 128] | > 200 |
| N#Cc1ccc2c(c1)[C@]1(C=Cc3sc(C(=O)c4cncnc4N[C@@H]4C[C@H](COS(N)(=O)=O)[C@@H](O)C4)cc31)OCC2 [Compound 299] | > 200 |
| NS(=O)(=O)OC[C@H]1C[C@@H](Nc2ncncc2C(=O)c2cc3c(s2)CCC[C@@]32OCCc3ccc(Cl)cc32)C[C@@H]1O [Compound 221] | > 200 |
| NS(=O)(=O)OC[C@H]1C[C@@H](Nc2ncncc2C(=O)c2cc3c(s2)CCCC32NC(=O)Cc3ccc(Cl)cc32)C[C@@H]1O (stereo partly drawn) [Compound 163] | > 200 |
| COc1cc2c(cc1Cl)[C@@]1(CCCc3sc(C(=O)c4cncnc4N[C@@H]4C[C@H](COS(N)(=O)=O)[C@@H](O)C4)cc31)NCC2 [Compound 211] | 50 to 200 |
| CN1CCc2ccc(Cl)cc2[C@@]12CCCc1sc(C(=O)c3cncnc3N[C@@H]3C[C@H](COS(N)(=O)=O)[C@@H](O)C3)cc12 [Compound 132] | 50 to 200 |
| NS(=O)(=O)OC[C@H]1C[C@@H](Nc2ncncc2C(=O)c2cc3c(s2)OCC32NCCc3ccc(F)cc32)C[C@@H]1O (stereo partly drawn) [Compound 58] | > 200 |
| NS(=O)(=O)OC[C@H]1C[C@@H](Nc2ncncc2C(=O)c2cc3c(s2)CCC[C@]32NCCc3ncc(Cl)cc32)C[C@@H]1O [Compound 141] | ≤ 50 |
| NS(=O)(=O)OC[C@H]1C[C@@H](Nc2ncncc2C(=O)c2cc3c(s2)CCCC32NCCc3ccc(C(F)(F)F)cc32)C[C@@H]1O (stereo partly drawn) [Compound 25] | 50 to 200 |
| NS(=O)(=O)OC[C@H]1C[C@@H](Nc2ncncc2C(=O)c2cc3c(s2)COC[C@@]32NCCc3cc(Cl)c(Cl)cc32)C[C@@H]1O [Compound 98] | > 200 |
| CCN1Cc2sc(C(=O)c3cncnc3N[C@@H]3C[C@H](COS(N)(=O)=O)[C@@H](O)C3)cc2C2(C1)OCCc1ccc(Cl)cc12 (stereo partly drawn) [Compound 265] | ≤ 50 |

| SMILES | IC50 [nM] |
| --- | --- |
| NS(=O)(=O)OC[C@H]1C[C@@H](Nc2ncncc2C(=O)c2cc3c(s2)COC[C@]32NCCc3ccccc32)C[C@@H]1O [Compound 15] | 50 to 200 |
| NS(=O)(=O)OC[C@H]1C[C@@H](Nc2ncncc2C(=O)c2cc3c(s2)OCC32NCCc3ccccc32)C[C@@H]1O (stereo partly drawn) [Compound 55] | > 200 |
| NS(=O)(=O)OC[C@H]1C[C@@H](Nc2ncncc2C(=O)c2cc3c(s2)CN(C2CC2)C[C@@]32OCCc3ccc(F)cc32)C[C@@H]1O [Compound 275] | > 200 |
| COc1ccc2c(c1)[C@@]1(CCc3sc(C(=O)c4cncnc4N[C@@H]4C[C@H](COS(N)(=O)=O)[C@@H](O)C4)cc31)NCC2 [Compound 225] | 50 to 200 |
| NS(=O)(=O)OC[C@H]1C[C@@H](Nc2ncncc2C(=O)c2cc3c(s2)CCCC32NCCc3cc(Cl)c(F)cc32)C[C@@H]1O (stereo partly drawn) [Compound 33] | 50 to 200 |
| NS(=O)(=O)OC[C@H]1C[C@@H](Nc2ncncc2C(=O)c2cc3c(s2)OC[C@@]32NCCc3ccc(F)cc32)C[C@@H]1O [Compound 59] | > 200 |
| N#Cc1ccc2c(c1)[C@@]1(CCCc3sc(C(=O)c4cncnc4N[C@@H]4C[C@H](COS(N)(=O)=O)[C@@H](O)C4)cc31)NCC2 [Compound 12] | ≤ 50 |
| CN1Cc2sc(C(=O)c3cncnc3N[C@@H]3C[C@H](COS(N)(=O)=O)[C@@H](O)C3)cc2C2(C1)NCCc1ccc(Cl)cc12 (stereo partly drawn) [Compound 112] | ≤ 50 |
| CC(C)N1Cc2sc(C(=O)c3cncnc3N[C@@H]3C[C@H](COS(N)(=O)=O)[C@@H](O)C3)cc2[C@]2(C1)OCCc1ccc(F)cc12 [Compound 270] | ≤ 50 |
| NS(=O)(=O)OC[C@H]1C[C@@H](Nc2ncncc2C(=O)c2cc3c(s2)CCCC32OCCc3ccccc32)C[C@@H]1O (stereo partly drawn) [Compound 244] | > 200 |
| N#Cc1cc2c(cc1Cl)C1(CCc3sc(C(=O)c4cncnc4N[C@@H]4C[C@H](COS(N)(=O)=O)[C@@H](O)C4)cc31)NCC2 (stereo partly drawn) [Compound 72] | 50 to 200 |
| NS(=O)(=O)OC[C@H]1C[C@@H](Nc2ncncc2C(=O)c2cc3c(s2)CCCC32NCCc3ccc(C4CC4)cc32)C[C@@H]1O (stereo partly drawn) [Compound 23] | 50 to 200 |
| NS(=O)(=O)OC[C@H]1C[C@@H](Nc2ncncc2C(=O)c2cc3c(s2)COC[C@]32NCCc3ccc(Cl)c(F)c32)C[C@@H]1O [Compound 105] | 50 to 200 |
| NS(=O)(=O)OC[C@H]1C[C@@H](Nc2ncncc2C(=O)c2cc3c(s2)CN(C2CC2)C[C@]32OCCc3ccc(F)cc32)C[C@@H]1O [Compound 276] | ≤ 50 |
| NS(=O)(=O)OC[C@H]1C[C@@H](Nc2ncncc2C(=O)c2cc3c(s2)C(F)=CC32NCCc3ccc(Cl)cc32)C[C@@H]1O (stereo partly drawn) [Compound 154] | ≤ 50 |
| NS(=O)(=O)OC[C@H]1C[C@@H](Nc2ncncc2C(=O)c2cc3c(s2)CC=C[C@]32NCCc3ccc(Cl)cc32)C[C@@H]1O [Compound 217] | ≤ 50 |
| N#Cc1ccc2c(c1)[C@]1(CCc3sc(C(=O)c4cncnc4N[C@@H]4C[C@H](COS(N)(=O)=O)[C@@H](O)C4)cc31)NCC2 [Compound 53] | > 200 |
| NS(=O)(=O)OC[C@H]1C[C@@H](Nc2ncncc2C(=O)c2cc3c(s2)CCCC32NCCc3ccc(Cl)cc32)C[C@@H]1O (stereo partly drawn) [Compound 4] | ≤ 50 |
| NS(=O)(=O)OC[C@H]1C[C@@H](Nc2ncncc2C(=O)c2cc3c(s2)CSCC32NCCc3ccc(Cl)cc32)C[C@@H]1O (stereo partly drawn) [Compound 91] | ≤ 50 |

same assay, conditions: 6 h incubation, numeric values, read-out: SUMO IF IC50

| SMILES | IC50 [nM] |
| --- | --- |
| NS(=O)(=O)OC[C@H]1C[C@@H](Nc2ncncc2C(=O)c2cc3c(s2)CC[C@@]32NCCc3ccc(F)cc32)C[C@@H]1O [Compound 50] | > 1000 |
| NS(=O)(=O)OC[C@H]1C[C@@H](Nc2ncncc2C(=O)c2cc3c(s2)COC[C@@]32NCCc3ccc(F)cc32)C[C@@H]1O [Compound 17] | > 1000 |
| [2H]C1([2H])CN[C@@]2(CCCc3sc(C(=O)c4cncnc4N[C@@H]4C[C@H](COS(N)(=O)=O)[C@@H](O)C4)cc32)c2cc(Cl)ccc21 [Compound 200] | > 1000 |
